Experimental data from the supplement of paper PMC10307832.

Columns and labels:
Assay in all cases: relative viability (nuclei count vs DMSO), 5 days (fraction); higher = more cells survive
[1] = compound: CC1=C(C=C(C=C1)NC(=O)C2=CC(=CC=C2)C(C)(C)C#N)NC3=CC4=C(C=C3)N=CN(C4=O)C [AZ628] + Cc1cc(Nc2cc(N3CCN(C)CC3)nc(Sc3ccc(NC(=O)C4CC4)cc3)n2)n[nH]1 [Tozasertib] (partner 0.1 µM)
Procedure, shortened: (§1)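 For relative viability, nuclei counts in treated wells were divided by those in vehicle wells. Lung cancer cell lines had been pin-tool dosed in 1536-well plates the day after seeding and cultured for 5 days, then fixed and stained in one step (final 0.05% Triton X-100, 1% formaldehyde, 1 ug/ml Hoechst) and imaged at 4×. Doses were one drug alone or a fixed anchor-drug dose plus five library-drug doses (not always all listed) in √10 steps, and values are duplicate-plate medians.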

[2] = compound: CC1=C(C=C(C=C1)NC(=O)C2=CC(=CC=C2)C(C)(C)C#N)NC3=CC4=C(C=C3)N=CN(C4=O)C [AZ628] + CC(C)C[C@H](NC(=O)[C@H](Cc1ccccc1)NC(=O)c1cnccn1)B(O)O [Bortezomib] (partner 0.002 µM)
Procedure, shortened: as §1

[3] = compound: C[As](C)SC[C@H](NC(=O)CC[C@H](N)C(=O)O)C(=O)NCC(=O)O [Darinaparsin] + Nc1nc2[nH]cc(CCc3ccc(C(=O)N[C@@H](CCC(=O)O)C(=O)O)cc3)c2c(=O)[nH]1 [Pemetrexed] (partner 0.2 µM)
Procedure, shortened: as §1

[4] = compound: C[As](C)SC[C@H](NC(=O)CC[C@H](N)C(=O)O)C(=O)NCC(=O)O [Darinaparsin] + CC1(C)CCC(c2ccc(Cl)cc2)=C(CN2CCN(c3ccc(C(=O)NS(=O)(=O)c4ccc(N[C@H](CCN5CCOCC5)CSc5ccccc5)c(S(=O)(=O)C(F)(F)F)c4)cc3)CC2)C1 [Navitoclax] (partner 0.5 µM)
Procedure, shortened: as §1

Cell Line: SK-LU-1
- relative viability ([1]; first compound 0.253 µM): 0.275
- relative viability ([1]; first compound 0.8 µM): 0.287
- relative viability ([1]; first compound 2.53 µM): 0.255
- relative viability ([1]; first compound 8 µM): 0.283
- relative viability ([2]; first compound 0.08 µM): 1.1
- relative viability ([2]; first compound 0.253 µM): 1.05
- relative viability ([2]; first compound 0.8 µM): 1.17
- relative viability ([2]; first compound 2.53 µM): 0.854
- relative viability ([2]; first compound 8 µM): 1.04
- relative viability ([3]; first compound 0.08 µM): 1.21
- relative viability ([3]; first compound 0.8 µM): 0.942
- relative viability ([3]; first compound 2.53 µM): 0.787
- relative viability ([3]; first compound 8 µM): 1.18
- relative viability ([4]; first compound 0.08 µM): 0.986
- relative viability ([4]; first compound 0.8 µM): 0.807
- relative viability ([4]; first compound 2.53 µM): 0.671
- relative viability ([4]; first compound 8 µM): 1.02

Cell Line: RERF-LC-KJ
- relative viability ([1]; first compound 0.08 µM): 0.506
- relative viability ([1]; first compound 0.253 µM): 0.526
- relative viability ([1]; first compound 0.8 µM): 0.452
- relative viability ([1]; first compound 2.53 µM): 0.493
- relative viability ([1]; first compound 8 µM): 0.307
- relative viability ([2]; first compound 0.08 µM): 1.22
- relative viability ([2]; first compound 0.253 µM): 1.14
- relative viability ([2]; first compound 0.8 µM): 1.29
- relative viability ([2]; first compound 2.53 µM): 1.12
- relative viability ([2]; first compound 8 µM): 1.03
- relative viability ([3]; first compound 0.08 µM): 0.513
- relative viability ([3]; first compound 0.8 µM): 0.441
- relative viability ([3]; first compound 2.53 µM): 0.448
- relative viability ([3]; first compound 8 µM): 0.484
- relative viability ([4]; first compound 0.08 µM): 1.08
- relative viability ([4]; first compound 0.8 µM): 0.92
- relative viability ([4]; first compound 2.53 µM): 0.749
- relative viability ([4]; first compound 8 µM): 1.08

Cell Line: NCI-H2087
- relative viability ([1]; first compound 0.08 µM): 0.251
- relative viability ([1]; first compound 0.253 µM): 0.174
- relative viability ([1]; first compound 0.8 µM): 0.19
- relative viability ([1]; first compound 2.53 µM): 0.204
- relative viability ([1]; first compound 8 µM): 0.132
- relative viability ([2]; first compound 0.08 µM): 0.831
- relative viability ([2]; first compound 0.253 µM): 0.738
- relative viability ([2]; first compound 0.8 µM): 0.783
- relative viability ([2]; first compound 2.53 µM): 0.775
- relative viability ([2]; first compound 8 µM): 0.399
- relative viability ([3]; first compound 0.08 µM): 0.656
- relative viability ([3]; first compound 0.8 µM): 0.671
- relative viability ([3]; first compound 2.53 µM): 0.667
- relative viability ([3]; first compound 8 µM): 0.616
- relative viability ([4]; first compound 0.08 µM): 1.3
- relative viability ([4]; first compound 0.8 µM): 1.04
- relative viability ([4]; first compound 2.53 µM): 1.01
- relative viability ([4]; first compound 8 µM): 1.13

Cell Line: LOU-NH91
- relative viability ([1]; first compound 0.08 µM): 0.568
- relative viability ([1]; first compound 0.253 µM): 0.7
- relative viability ([1]; first compound 0.8 µM): 0.7
- relative viability ([1]; first compound 2.53 µM): 0.629
- relative viability ([1]; first compound 8 µM): 0.573
- relative viability ([2]; first compound 0.08 µM): 0.481
- relative viability ([2]; first compound 0.253 µM): 0.478
- relative viability ([2]; first compound 0.8 µM): 0.485
- relative viability ([2]; first compound 2.53 µM): 0.466
- relative viability ([2]; first compound 8 µM): 0.453
- relative viability ([3]; first compound 0.08 µM): 0.414
- relative viability ([3]; first compound 0.8 µM): 0.431
- relative viability ([3]; first compound 2.53 µM): 0.314
- relative viability ([3]; first compound 8 µM): 0.384
- relative viability ([4]; first compound 0.08 µM): 0.699
- relative viability ([4]; first compound 0.8 µM): 0.701
- relative viability ([4]; first compound 2.53 µM): 0.642
- relative viability ([4]; first compound 8 µM): 0.604

Cell Line: 201T
- relative viability ([1]; first compound 0.08 µM): 0.939
- relative viability ([1]; first compound 0.253 µM): 0.861
- relative viability ([1]; first compound 0.8 µM): 1.04
- relative viability ([1]; first compound 2.53 µM): 0.899
- relative viability ([1]; first compound 8 µM): 0.89
- relative viability ([2]; first compound 0.08 µM): 1.15
- relative viability ([2]; first compound 0.253 µM): 1.13
- relative viability ([2]; first compound 0.8 µM): 1.13
- relative viability ([2]; first compound 2.53 µM): 1.16
- relative viability ([2]; first compound 8 µM): 1.21
- relative viability ([3]; first compound 0.08 µM): 0.374
- relative viability ([3]; first compound 0.8 µM): 0.33
- relative viability ([3]; first compound 2.53 µM): 0.33
- relative viability ([3]; first compound 8 µM): 0.363
- relative viability ([4]; first compound 0.08 µM): 1.21
- relative viability ([4]; first compound 0.8 µM): 1.15
- relative viability ([4]; first compound 2.53 µM): 1.19
- relative viability ([4]; first compound 8 µM): 1.12

Cell Line: UMC-11
- relative viability ([1]; first compound 0.08 µM): 0.228
- relative viability ([1]; first compound 0.253 µM): 0.21
- relative viability ([1]; first compound 0.8 µM): 0.194
- relative viability ([1]; first compound 2.53 µM): 0.212
- relative viability ([1]; first compound 8 µM): 0.203
- relative viability ([2]; first compound 0.08 µM): 0.935
- relative viability ([2]; first compound 0.253 µM): 0.571
- relative viability ([2]; first compound 0.8 µM): 0.694
- relative viability ([2]; first compound 2.53 µM): 0.739
- relative viability ([2]; first compound 8 µM): 0.666
- relative viability ([3]; first compound 0.08 µM): 0.884
- relative viability ([3]; first compound 0.8 µM): 0.863
- relative viability ([3]; first compound 2.53 µM): 0.778
- relative viability ([3]; first compound 8 µM): 0.878
- relative viability ([4]; first compound 0.08 µM): 0.339
- relative viability ([4]; first compound 0.8 µM): 0.313
- relative viability ([4]; first compound 2.53 µM): 0.305
- relative viability ([4]; first compound 8 µM): 0.311

Cell Line: NCI-H1975
- relative viability ([1]; first compound 0.08 µM): 0.794
- relative viability ([1]; first compound 0.253 µM): 0.562
- relative viability ([1]; first compound 0.8 µM): 0.449
- relative viability ([1]; first compound 2.53 µM): 0.453
- relative viability ([1]; first compound 8 µM): 0.163
- relative viability ([2]; first compound 0.08 µM): 0.409
- relative viability ([2]; first compound 0.253 µM): 0.343
- relative viability ([2]; first compound 0.8 µM): 0.303
- relative viability ([2]; first compound 2.53 µM): 0.281
- relative viability ([2]; first compound 8 µM): 0.241
- relative viability ([3]; first compound 0.08 µM): 0.328
- relative viability ([3]; first compound 0.8 µM): 0.301
- relative viability ([3]; first compound 2.53 µM): 0.291
- relative viability ([3]; first compound 8 µM): 0.319
- relative viability ([4]; first compound 0.08 µM): 1.26
- relative viability ([4]; first compound 0.8 µM): 1.15
- relative viability ([4]; first compound 2.53 µM): 1.11
- relative viability ([4]; first compound 8 µM): 1.45

Cell Line: SW 1573
- relative viability ([1]; first compound 0.08 µM): 0.203
- relative viability ([1]; first compound 0.253 µM): 0.186
- relative viability ([1]; first compound 0.8 µM): 0.2
- relative viability ([1]; first compound 2.53 µM): 0.135
- relative viability ([1]; first compound 8 µM): 0.122
- relative viability ([2]; first compound 0.08 µM): 0.952
- relative viability ([2]; first compound 0.253 µM): 0.911
- relative viability ([2]; first compound 0.8 µM): 0.886
- relative viability ([2]; first compound 2.53 µM): 0.946
- relative viability ([2]; first compound 8 µM): 0.621
- relative viability ([3]; first compound 0.08 µM): 1
- relative viability ([3]; first compound 0.8 µM): 0.84
- relative viability ([3]; first compound 2.53 µM): 0.815
- relative viability ([3]; first compound 8 µM): 0.939
- relative viability ([4]; first compound 0.08 µM): 1.23
- relative viability ([4]; first compound 0.8 µM): 0.991
- relative viability ([4]; first compound 2.53 µM): 1.01
- relative viability ([4]; first compound 8 µM): 0.992

Cell Line: NCI-H441
- relative viability ([1]; first compound 0.08 µM): 0.647
- relative viability ([1]; first compound 0.253 µM): 0.613
- relative viability ([1]; first compound 0.8 µM): 0.676
- relative viability ([1]; first compound 2.53 µM): 0.556
- relative viability ([1]; first compound 8 µM): 0.445
- relative viability ([2]; first compound 0.08 µM): 0.733
- relative viability ([2]; first compound 0.253 µM): 0.47
- relative viability ([2]; first compound 0.8 µM): 0.973
- relative viability ([2]; first compound 2.53 µM): 0.454
- relative viability ([2]; first compound 8 µM): 0.441
- relative viability ([3]; first compound 0.08 µM): 0.264
- relative viability ([3]; first compound 0.8 µM): 0.239
- relative viability ([3]; first compound 2.53 µM): 0.279
- relative viability ([3]; first compound 8 µM): 0.246
- relative viability ([4]; first compound 0.08 µM): 0.773
- relative viability ([4]; first compound 0.8 µM): 0.593
- relative viability ([4]; first compound 2.53 µM): 0.615
- relative viability ([4]; first compound 8 µM): 0.962

Cell Line: HCC-366
- relative viability ([1]; first compound 0.08 µM): 0.0912
- relative viability ([1]; first compound 0.253 µM): 0.0518
- relative viability ([1]; first compound 0.8 µM): 0.0747
- relative viability ([1]; first compound 2.53 µM): 0.0418
- relative viability ([1]; first compound 8 µM): 0.0451
- relative viability ([2]; first compound 0.08 µM): 1.04
- relative viability ([2]; first compound 0.253 µM): 0.894
- relative viability ([2]; first compound 0.8 µM): 0.957
- relative viability ([2]; first compound 2.53 µM): 0.999
- relative viability ([2]; first compound 8 µM): 0.681
- relative viability ([3]; first compound 0.08 µM): 0.18
- relative viability ([3]; first compound 2.53 µM): 0.15
- relative viability ([3]; first compound 8 µM): 0.2
- relative viability ([4]; first compound 0.08 µM): 1.3
- relative viability ([4]; first compound 0.8 µM): 1.06
- relative viability ([4]; first compound 2.53 µM): 1.12
- relative viability ([4]; first compound 8 µM): 1.41

Cell Line: NCI-H1915
- relative viability ([1]; first compound 0.08 µM): 0.429
- relative viability ([1]; first compound 0.253 µM): 0.412
- relative viability ([1]; first compound 0.8 µM): 0.377
- relative viability ([1]; first compound 2.53 µM): 0.309
- relative viability ([1]; first compound 8 µM): 0.206
- relative viability ([2]; first compound 0.08 µM): 0.939
- relative viability ([2]; first compound 0.253 µM): 1.02
- relative viability ([2]; first compound 0.8 µM): 0.771
- relative viability ([2]; first compound 2.53 µM): 0.598
- relative viability ([2]; first compound 8 µM): 0.716
- relative viability ([3]; first compound 0.08 µM): 0.495
- relative viability ([3]; first compound 0.8 µM): 0.446
- relative viability ([3]; first compound 2.53 µM): 0.494
- relative viability ([3]; first compound 8 µM): 0.662
- relative viability ([4]; first compound 0.08 µM): 0.88
- relative viability ([4]; first compound 0.8 µM): 0.82
- relative viability ([4]; first compound 2.53 µM): 0.771
- relative viability ([4]; first compound 8 µM): 0.812
